Results reported in patent US20090269770A1, “METHODS FOR EVALUATION PROGNOSIS AND FOLLOW-UP OF DRUG TREATMENT OF PSYCHIATRIC DISEASES OR DISORDERS” (priority 2008, published 2009).
Values joined by “and” are separate entries in the source; they are usually repeats but may differ in a detail not shown here. Equal entries are not always repeated. “Also recorded” adds a separate entry of the source.

Tested on: PMC from schizophrenic patients
Experiment: GPCR cDNA array (GEArray Q series) of PMC gene expression, fluvoxamine augmentation
Type: in vivo, human
Design: key to Gene expression change CCR5 (X91492), divided by week 0 / Gene expression change CCR7 (L31581), divided by week 0 / Gene expression change CCRL1 (AF110640), divided by week 0 / Gene expression change CRL1 (U79527), divided by week 0 / Gene expression change IL8Rα (L19591), divided by week 0 / Gene expression change RGS7 (BC022009), divided by week 0 / Gene expression change 5-HT2A (X57830), divided by week 0 / Gene expression change 5-HT7 (L21195), divided by week 0 / Gene expression change CCR1 (D10925), divided by week 0: D—down regulation (<0.7); U—up regulation (>1.3); nc—No change; nd—Not detected
Settings: for Gene expression change 5-HT2A (X57830), divided by week 0 / Gene expression change 5-HT7 (L21195), divided by week 0 / Gene expression change CCR1 (D10925), divided by week 0 / Gene expression change CCR5 (X91492), divided by week 0 / Gene expression change CCR7 (L31581), divided by week 0 / Gene expression change CCRL1 (AF110640), divided by week 0 / Gene expression change CRL1 (U79527), divided by week 0 / Gene expression change IL8Rα (L19591), divided by week 0 / Gene expression change RGS7 (BC022009), divided by week 0: PMC, one cell per patient I-VI
Protocol: Patients suffering from chronic schizophrenia (DSM IV criteria) with at least 2 years of illness (range 2-17 years) and persistent negative symptoms were chosen from an Israeli mental health center, as shown in Table 1. To qualify for inclusion in the study, these patients were required to be on constant antipsychotic medication for at least 6 months prior to the study and on an unchanged dose for at least 4 weeks before entry.
Fluvoxamine (100 mg/day) was added in an open study format to the antipsychotic treatment, which remained steady. Clinical state was assessed by psychiatrists using validated rating scales for negative (SANS) and positive (SAPS) symptoms (Silver et al., 2003) prior to fluvoxamine treatment and then weekly until the end of the trial period. Total SANS scores and summary scores for […] blunting, alogia, anhedonia and […] factors were the outcome measures. Extrapyramidal symptoms were assessed with the Simpson-Angus Scale (SAS) for extrapyramidal side effects (Simpson and Angus, 1970). Blood samples were taken at baseline (day 0), before addition of fluvoxamine, after 3 weeks of combined treatment, a time when the initial clinical effect is expected to be seen (Silver et al., 2003), and after 6 weeks of the combined treatment.
Blood samples (40 ml) from patients were collected in EDTA-coated tubes in order to prevent coagulation, and transported in ice to the laboratory for further processing. Each 15 ml of blood was completed to 40 ml with phosphate buffered saline (PBS) and gently mixed. PMC were isolated according to Ficoll protocol (Sigma, USA). In short, after addition of Ficoll reagent, the tubes were centrifuged (400 g, 30 min), and the interphase was transferred to a new tube, mixed with 100 ml PBS and centrifuged (400 g, 10 min). The supernatant was discarded and the pellet containing the PMC was washed 3 times with PBS (400 g, 10 min). TriReagent (Sigma, USA) was added to the pellet and left on ice for 15 min.
[…] chloroform was added to 1 ml of sample in TriReagent and the suspension was centrifuged (12,000 g, 20 min, 4° C.). After precipitation with isopropanol, the RNA pellet was washed twice with 70% ethanol (7,500 g, 10 min), followed by one wash with 96% ethanol (12,000 g, 10 min) and resuspended in diethylpyrocarbonate (DEPC)-treated water. RNA sample concentrations were determined by UV spectrophotometry at 260 nm (average OD260/2801.9-2). RNA purity was determined by the 260/230 and 260/280 ratios. RNA integrity was confirmed using gel (1.2% agarose) electrophoresis by direct visualization of 18S and 28S rRNA bands and densitometric analysis.
In the next step, gene expression profiles were examined with GEArray™ cDNA membranes, consisting of genes related to G protein-coupled receptor (GPCR) pathways (Q series human G protein-coupled receptor gene array II, SuperArray, Bethesda, Md., USA). Each membrane consists of 100 human cDNAs fragments associated with GPCR family, including receptors for dopamine (DA), serotonin (5-HT), acetylcholine and epinephrine; receptors for chemokines; GPCR kinases; Mitogen activated protein kinases; and regulators of G-protein signaling (RGS). Hybridization array analysis was performed according to the manufacturer's (SuperArray, Bethesda, Md.) protocol. Total RNA from each patient was reverse transcribed with biotinylated dUTP (Roche Diagnostics, Mannheim, Germany) and a gene specific primer mix (SuperArray, Bethesda, Md.). The probes were hybridized to the membrane and the array image was recorded using X-ray film. Quantitation of the results and analysis was accomplished using the manufacturer Software Package (SuperArray, Bethesda, Md.). The row values from 4 spotted replicates of a gene were averaged, normalized to the median of all intensity values on array and compared to control values, thereby assessing the relative expression level of a given mRNA. […]

[1] = after 3 weeks or more of the combined treatment
[2] = in at least 4 out of the 6 subjects after 3 weeks or more of the combined treatment

COCCCC/C(=N\OCCN)c1ccc(C(F)(F)F)cc1 [fluvoxamine]
expression level of CCR5 [1]: increase
transcript encoding 5-HR7 [1]: reduced expression level
transcript encoding 5-HT2A [1]: reduced expression level
transcript encoding RGS7 [1]: reduced expression level
expression level of CCR1 [2]: decrease
expression level of CCRL1 [2]: decrease
expression level of CMKLR1 [2]: decrease
expression level of IL8Rα [2]: decrease
Gene expression change 5-HT2A (X57830), divided by week 0 (week 3): D (D—down regulation (<0.7)) (4×) and nc
Gene expression change 5-HT7 (L21195), divided by week 0 (week 3): D (D—down regulation (<0.7)) (4×) and nc
Gene expression change CCR1 (D10925), divided by week 0 (week 3): D (D—down regulation (<0.7)) (3×) and nc
Gene expression change CCR5 (X91492), divided by week 0 (week 3): U (U—up regulation (>1.3))
Gene expression change CCR7 (L31581), divided by week 0 (week 3): nc (2×) and D (D—down regulation (<0.7)) (3×) and U (U—up regulation (>1.3))
Gene expression change CCRL1 (AF110640), divided by week 0 (week 3): nc (3×) and D (D—down regulation (<0.7)) (3×)
Gene expression change CRL1 (U79527), divided by week 0 (week 3): D (D—down regulation (<0.7)) (4×) and nc (2×)
Gene expression change IL8Rα (L19591), divided by week 0 (week 3): D (D—down regulation (<0.7)) (3×) and nc and U (U—up regulation (>1.3)) (2×)
Gene expression change RGS7 (BC022009), divided by week 0 (week 3): D (D—down regulation (<0.7)) (2×) and nc (3×) and U (U—up regulation (>1.3))
Gene expression change 5-HT2A (X57830), divided by week 0 (week 6): nc and D (D—down regulation (<0.7)) (4×)
Gene expression change 5-HT7 (L21195), divided by week 0 (week 6): D (D—down regulation (<0.7)) (4×) and nc
Gene expression change CCR1 (D10925), divided by week 0 (week 6): D (D—down regulation (<0.7)); also recorded: U (U—up regulation (>1.3))
Gene expression change CCR5 (X91492), divided by week 0 (week 6): U (U—up regulation (>1.3)) and nc (2×) and D (D—down regulation (<0.7))
Gene expression change CCR7 (L31581), divided by week 0 (week 6): U (U—up regulation (>1.3)) (3×) and nc (2×) and D (D—down regulation (<0.7))
Gene expression change CCRL1 (AF110640), divided by week 0 (week 6): U (U—up regulation (>1.3)) (2×) and nc (2×) and D (D—down regulation (<0.7)) (2×)
Gene expression change CRL1 (U79527), divided by week 0 (week 6): D (D—down regulation (<0.7)) (4×) and nc and U (U—up regulation (>1.3))
Gene expression change IL8Rα (L19591), divided by week 0 (week 6): D (D—down regulation (<0.7)) (4×) and U (U—up regulation (>1.3)) and nc
Gene expression change RGS7 (BC022009), divided by week 0 (week 6): D (D—down regulation (<0.7)) (4×) and nc (2×)
expression level of CCR7 (week 6 compared with week 3): increased
expression level of CCRL1 (week 6 compared with week 3): increased
